In article PMC10610505, “Synthesis and Biological Evaluation of Some New 3-Aryl-2-thioxo-2,3-dihydroquinazolin-4(1H)-ones and 3-Aryl-2-(benzylthio)quinazolin-4(3H)-ones as Antioxidants; COX-2, LDHA, α-Glucosidase and α-Amylase Inhibitors; and Anti-Colon Carcinoma and Apoptosis-Inducing Agents” (Pharmaceuticals, 2023):
Like-named read-outs stand apart in the source and are kept apart here.

Key:
[1] = test system: LoVo human colon carcinoma cells; assay: Viability assay (LDH release), LoVo; format: cell-based; details: for viability at 200 µg/mL: Homo sapiens, LoVo, 48 h, read-out: Mean % of viable cells ± SD, LoVo
Description: (§1) The anticancer activities of all the synthesized compounds were assessed against two human colon carcinoma cell lines, namely LoVo and HCT-116 (Table 6), via the determination of the mean percents of the viable cancerous cells remaining after being incubated with 200 µg/mL of each test compound for 48 h using LDH assay.
(§2) The samples were diluted in Dulbecco’s Modified Eagle’s Medium, consisting of 10% fetal bovine serum (FBS), added to cells grown and cultured for 24 h in a 5% CO2-humidified incubator at 37 °C. Thereafter, the activity of lactate dehydrogenase released from damaged cells was determined in the collected supernatant aliquots using an ELISA end-point assay (Benchmark Plus, Bio-Rad, CA, USA); 0.1% Triton X-100 in the assay medium and the assay medium only were used as the positive and negative controls, respectively. Cell viability was expressed as a relative percentage of the OD values (at 550 nm) for compound-treated cells (final concentration of 200 µg /mL) and the negative control, which was shown as the mean % ± SD (n = 3). The results of the viability assays for the potential cytotoxic candidates were compared with the % of viable human umbilical vein endothelial cells (HUVEC) at the same concentration. These cells were grown in Dulbecco’s Modified Eagle’s Medium (PAN-Biotech; Barcelona, Spain) containing 10% FBS (Sigma Aldrich; St. Quentin-Fallavier, France), 2 mM Glutamine (Sigma Aldrich), 100 units/mL penicillin and […] streptomycin (Life Technologies; Paisley, UK).

[2] = DPPH radical scavenging assay; format: biochemical; details: for Mean IC50 for scavenging initial DPPH radicals: mean ± SD of three replicates; for IC50: mean ± SD, converted from mg/mL, read-out: Mean IC50 for scavenging initial DPPH radicals (converted)
Excerpt: In principle, the antioxidant power of a compound in this assay is correlated to its tendency to reduce the stable, purple-colored DPPH radical through a hydrogen atom transfer (HAT) mechanism and/or a single electron transfer mechanism, thereby converting it to the yellow-colored 2,2-diphenyl-1-picrylhydrazine, whereby this reduction is accompanied by a depletion in the amount of the initial DPPH radicals and a change in the absorbance of the test solution accordingly, which can be detected relative to the blank solution at λ = 517 nm.
The antioxidant potencies of all synthesized compounds were investigated using a 1,1 diphenyl-2-picrylhydrazyl (DPPH) radical scavenging assay according to the protocol described by Bersuder et al.. In brief, a 0.5 mL volume of DPPH ethanolic solution was mixed with an equal volume of each sample concentration (i.e., the test compound or butylated hydroxytoluene, BHT, which was used as the reference antioxidant in the positive control experiment), shaken strongly, and incubated at room temperature for 1 h in darkness. The absorbance of the residual DPPH radicals was measured at λ = 519 nm and compared to the negative control (without the test compound or reference antioxidant). The DPPH radical scavenging power was calculated using the following formula: scavenging efficiency (%) = (1 − Acompound/AControl) × 100, where Acompound and Acontrol are the absorbance of the tested compound and the negative control, respectively. […] Additionally, the ± SD values were calculated from three independent triplicate measurements.

COX-2 = target: T1, COX-2 (Homo sapiens, UniProt P35354); assay: COX-2 inhibitory screening assay (Cayman kit); format: biochemical; details: for Increase in COX-2 inhibitory efficiency by duplicating the concentration: % inhibition at 0.200 mg/mL divided by % inhibition at 0.100 mg/mL; for inhibition at 100 µg/mL: at 0.100 mg/mL; for inhibition at 100 µg/mL / inhibition at 200 µg/mL: read-out: COX-2 mean % inhibition ± SD; for inhibition at 200 µg/mL: at 0.200 mg/mL
T1 construct: purchased Cayman Chemical Company 701080
T1 sequence (P35354 18-604): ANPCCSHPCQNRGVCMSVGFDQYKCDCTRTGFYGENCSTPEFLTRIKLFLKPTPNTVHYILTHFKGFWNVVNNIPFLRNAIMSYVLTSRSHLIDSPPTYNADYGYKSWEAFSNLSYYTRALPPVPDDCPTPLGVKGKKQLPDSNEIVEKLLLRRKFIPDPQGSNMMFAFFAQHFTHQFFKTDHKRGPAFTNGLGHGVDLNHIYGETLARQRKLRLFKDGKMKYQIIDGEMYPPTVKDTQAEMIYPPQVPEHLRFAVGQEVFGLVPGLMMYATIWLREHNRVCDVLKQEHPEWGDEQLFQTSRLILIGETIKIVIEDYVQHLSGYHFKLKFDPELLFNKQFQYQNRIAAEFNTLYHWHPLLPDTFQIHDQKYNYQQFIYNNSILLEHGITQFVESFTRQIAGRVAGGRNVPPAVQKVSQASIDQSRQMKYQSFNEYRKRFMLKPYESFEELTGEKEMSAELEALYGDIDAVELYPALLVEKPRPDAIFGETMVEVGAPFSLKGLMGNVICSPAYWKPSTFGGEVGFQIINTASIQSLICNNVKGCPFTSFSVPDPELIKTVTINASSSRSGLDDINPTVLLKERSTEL
Description: Each compound of the two series, 3a–h and 5a–h, was resuspended in 100% DMSO at a final concentration of 10 mg/mL. […] Briefly, 10 µL of the tested compound was added to a mixture of the reaction buffer solution (160 µL of 0.1 M Tris-HCl, pH 8.0, in the presence of 2 mM phenol and 5 mM EDTA), COX-2 (10 µL) and heme (10 µL). After a 10 min incubation at 37 °C, the reaction was started by adding arachidonic acid (10 µL), rapidly mixed and kept at 37 °C for 2 min. PGF2α generated via PGH2 reduction with stannous chloride (30 µL) was incubated at room temperature for 5 min. The PGF2α amount was then determined via an enzyme immunoassay. Prior to incubation with the COX-2 reaction (at room temperature 18 h), the 96-well plate was previously coated with a mouse anti-rabbit monoclonal antibody. Unbound reagents were removed by washing the plate followed by adding Ellman’s reagent to the well. The reaction product displaying a distinct yellow color was measured at 410 nm using a UV microplate reader. The % inhibition was calculated by comparing the PGF2α produced in the compound-treated samples with a control sample, using the following equation: % inhibition is equal to [([PGF2α]control − [PGF2α]sample) /[PGF2α ]control ] × 100. […] The COX-2 inhibitory efficiency was expressed as an inhibition percentage, which was determined via a comparison with the negative control experiments.

[3] = test system: HCT-116 human colon carcinoma cells; assay: Viability assay (LDH release), HCT-116; format: cell-based; details: for viability at 200 µg/mL: Homo sapiens, read-out: Mean % of viable cells ± SD, HCT-116
Description: as §1, §2

α-amylase = assay: In vitro α-amylase (AA) inhibition assay; details: mean ± SD of three replicates; for IC50: read-out: Mean IC50 α-Amylase (AA)
Description: Then, 180 µL of Labtest (the amylase substrate) was added and the samples were incubated for 8 min, followed by measuring the first reaction at 620 nm to obtain (X1). Afterwards, the reaction mixture was incubated for an additional 5 min at 37 °C; then, the second reaction was measured to obtain the final reading (X2). […] The results were expressed as IC50 µg/mL (as well as µM) and were determined from the standard curves.

[4] = target: purified recombinant human LDHA protein (Homo sapiens, UniProt P00338); assay: Lactate dehydrogenase A (LDHA) inhibitory assay; format: biochemical; details: for Fold change of LDHA inhibition as compared to 0.1 mg/mL: % inhibition at 0.200 mg/mL divided by % inhibition at 0.100 mg/mL; for inhibition at 100 µg/mL: at 0.1 mg/mL; for inhibition at 100 µg/mL / inhibition at 200 µg/mL: read-out: LDHA mean % inhibition ± SD; for inhibition at 200 µg/mL: at 0.2 mg/mL
Description: The LDHA inhibitory effectiveness was investigated by measuring the amounts of consumed NADH [73]. […] The fluorescence of NADH, which has an excitation wavelength of 340 nm and an emission wavelength of 460 nm, was detected using a spectrofluorometer. […] The LDHA inhibitory efficiency was expressed as an inhibition percentage, which was determined via a comparison with the negative control experiments.

Row | Compound | viability at 200 µg/mL ([1]; 200 µg/mL) [%] | Mean IC50 for scavenging initial DPPH radicals [2] [µg/mL] | IC50 [2] [µM] | Increase in COX-2 inhibitory efficiency by duplicating the concentration (COX-2) [fold] | inhibition at 100 µg/mL (COX-2) [%] | inhibition at 200 µg/mL (COX-2) [%] | viability at 200 µg/mL ([3]; HCT-116, 200 µg/mL, 48 h) [%] | Mean IC50 α-Amylase (AA) (α-amylase) [µg/mL] | IC50 (α-amylase) [µM] | Fold change of LDHA inhibition as compared to 0.1 mg/mL [4] [fold] | inhibition at 100 µg/mL [4] [%] | inhibition at 200 µg/mL [4] [%] | Mean % of viable cells, LoVo ([1]; positive control, 0.1%) [%] | Mean % of viable cells, HCT-116 ([3]; positive control, 0.1%) [%] | viability at 200 µg/mL [1] [%] | viability at 200 µg/mL ([3]; HCT-116, 48 h) [%]
1 | COc1cc2nc(SCc3cccc([N+](=O)[O-])c3)n(-c3cccc(C(F)(F)F)c3)c(=O)c2cc1OC [Compound 5c, 2-(3-Nitrobenzylsulfanyl)-6,7-dimethoxy-3(3-trifluoromethyl-phenyl)-3H-quinazolin-4-one] | 78.3 ± 3.51 | 186 ± 6 | 359 | 1.41 | 18.6 ± 3.46 | 26.2 ± 4.03 | 82.3 ± 2.52 | 197.333 ± 4.509 | 381 | 1.67 | 8.55 ± 1.06 | 14.3 ± 1.56 | – | – | – | –
2 | COc1cc2nc(SCc3ccc(Cl)cc3)n(-c3ccc([N+](=O)[O-])cc3)c(=O)c2cc1OC [Compound 5h, 2-(4-Chloro-benzylsulfanyl)-6,7-dimethoxy-3-(4-nitro-phenyl)-3H-quinazolin-4-one] | 81.7 ± 3.06 | 364 ± 20 | 752 | 2.58 | 11.2 ± 0.99 | 28.9 ± 0.283 | 91 ± 2.65 | 117.667 ± 3.055 | 243 | 1.42 | 15.3 ± 1.2 | 21.8 ± 1.34 | – | – | – | –
3 | O=c1c2cc(Cl)ccc2nc(SCc2ccccc2F)n1-c1cccc(C(F)(F)F)c1 [Compound 5a, 2-(2-Fluoro-benzylsulfanyl)-6-chloro-3-(3-trifluoromethyl-phenyl)-3H-quinazolin-4-one] | 90.3 ± 1.53 | 80 ± 2 | 172 | 1.85 | 34.2 ± 1.7 | 63.1 ± 5.87 | 89.7 ± 3.06 | 86.667 ± 4.509 | 186 | 1.62 | 24 ± 1.7 | 38.9 ± 1.13 | – | – | – | –
4 | Triton X-100 [reference compound] | – | – | – | – | – | – | – | – | – | – | – | – | 0.000 | 0.000 | – | –
5 | COc1cc2[nH]c(=S)n(-c3ccc([N+](=O)[O-])cc3)c(=O)c2cc1OC [Compound 3h, 6,7-Dimethoxy-3-(4-nitro-phenyl)-2-thioxo-2,3-dihydro-1H-quinazolin-4-one] | – | 325 ± 7 | 904 | 1.900 | 14.6 ± 0.636 | 27.6 ± 2.19 | – | 122.000 ± 4.583 | 339 | 1.47 | 29.9 ± 1.77 | 43.9 ± 1.56 | – | – | 64 ± 3 | 70.3 ± 3.79
